Data taken from USRE39198E1, “Heteroarylpiperidines, pyrrolidines and piperazines and their use as antipsychotics and analgesics” (Aventis Pharmaceuticals Inc., priority 1989, dated 2006).

What was measured:
CK-1 male mice = assay: Climbing mouse assay (apomorphine-induced climbing); format: in vivo; details: apomorphine 1.5 mg/kg sc challenge, climbing score vs control group set to 100%, linear regression
Description: Antipsychotic activity is determined in the climbing mice assay by a method similar to those described by P. Protais, et al., Psychopharmacol., 50:1 (1976) and B. Costall, Eur. J. Pharmacol., 50:39 (1978).
Subject […] male mice (23-27 grams) are group-housed under standard laboratory conditions. The mice are individually placed in wire mesh stick cages (4″×10″) and are allowed one hour for adaption and exploration of the new environment. Then apomorphine is injected subcutaneously at 1.5 mg/kg a dose causing climbing in all subjects for 30 minutes.
For evaluation of climbing, 3 readings are taken at 10. 20, and 30 minutes after apomorphine administration according to the following scale:
Mice consistently climbing before the injection of apomorphine are discarded.
With full-developed apomorphine climbing, the animals are hanging on to the cage walls, rather motionless, over long periods of time. By contrast, climbs due to mere motor stimulation usually only last a few seconds.
The climbing scores are individually totaled (maximal score: 6 per mouse over 3readings) and the total score of the control group (vehicle intraperitoneally-apomorphine subcutaneously) is set to 100%.

mice = assay: Phenyl p-quinone writhing assay in mice; format: in vivo; details: dose effecting approximately 50% inhibition of writhing in mice
From the text: Some of the compounds of the present invention are also useful as analgetics due so their ability to alleviate pain in mammals. […] Exptl. Biol. Med., 95:729 (1937). Thus, for instance the subcutaneous dose effecting an approximately 50% inhibition of writhing (ED50) in mice produced in this assay is as shown in Table 2.

Row | Compound | CLIMBING MOUSE ASSAY (ED50 mg/kg, ip) (CK-1 male mice) | melting point | further results
1 | 6-Fluoro-3-[1-[3-[(isoquinol-5-yl)oxy]propyl]-4-piperidinyl]-1,2-benzisoxazole sesquifumarate | 0.172 mg/kg | – | –
2 | CC(=O)c1ccc(CCCCN2CCC(c3noc4cc(F)ccc34)CC2)cc1 [1-[4-(4′-Acetophenyl)butyl]-4-(6-fluoro-1,2-benzisoxazol-3-yl)piperidine] | 0.34 mg/kg | – | –
3 | COc1cc(C(C)=O)ccc1OCCCN1CCC(c2noc3ccccc23)CC1 [1-[4-[3-[4-(1,2-Benzisoxazol-3-yl)-1-piperadinyl]propoxyl]-3-methoxyphenyl]ethanone] | 0.67 mg/kg | – | INHIBITION OF PHENYLQUINONE INDUCED WRITHING ED50 mg/kg, sc (mice): 0.17 mg/kg
4 | COc1cc(C(C)=O)ccc1OCCCN1CCC(c2noc3cc(F)ccc23)CC1 [1-[4-[3-[4-(6-Fluoro-1,2-benzisoxazol-3-yl)-1-piperadinyl]propoxy]-3-methoxyphenyl]ethanone] | 0.095 mg/kg | – | INHIBITION OF PHENYLQUINONE INDUCED WRITHING ED50 mg/kg, sc (mice): 0.03 mg/kg
5 | COc1cc(C(C)O)ccc1OCCCCN1CCC(c2noc3ccccc23)CC1 (stereo not shown) [1-[4-[4-[4-(1,2-Benzisoxazol-3-yl)-1-piperidinyl]butoxy]-3-methoxyphenyl]ethanol] | – | 99 to 101 °C | ED50 (CK-1 male mice; Mus musculus, ip): 1.6 mg/kg
6 | COc1cc(C(C)=O)ccc1OCCCCN1CCC(c2noc3cc(F)ccc23)CC1 [1-[4-[4-[4-(6-Fluoro-1,2-benzisoxazol-3-yl)-1-piperidinyl)butoxy]-3-methoxyohenylethanone] | 0.68 mg/kg | – | –
7 | Fc1ccc2c(C3CCN(CCC4COc5ccccc5O4)CC3)noc2c1 (stereo not shown) [2-[4-(6-Fluoro-1,2-benzisoxazol-3-yl)-1-piperidinyl]ethyl]-1,4-benzodioxan] | 0.29 mg/kg | – | –
8 | O=C1c2cccc(F)c2C(=O)N1CCN1CCC(c2noc3cc(F)ccc23)CC1 [Example 155, N-[2-[4-(6-Fluoro-1,2-benzisoxazol-3-yl)-1-piperidinyl]ethyl]-3-fluorophthalimide] | – | 142 to 143 °C | –
9 | Cc1ccc2c(c1)C(=O)N(CCN1CCC(c3noc4cc(F)ccc34)CC1)C2=O [Example 157, N-[2-[4-(6-Fluoro-1,2-benzisoxazol-3-yl)-1-piperidinyl]ethyl]-4-methylphthalimide] | – | 138 to 140 °C | –
10 | O=C1c2ccccc2C(=O)N1CCN1CCC(c2noc3cc(F)ccc23)CC1 [N-[2-[4-(6-Fluoro-1,2-benzisoxazol-3-yl)-1-piperidinyl]ethyl]phthalimide] | – | 148 to 149 °C | –
